Measurements published in patent US9700541B2, “Seizure therapy” (Creighton University, priority 2012, dated 2017).
“Also recorded” adds a separate entry of the source.

System: acute mouse hippocampal slices
Assay: Extracellular recordings in CA3 stratum radiatum of acute hippocampal slices after complex I inhibition
Assay type: cell-based
Method: FIG. 5A depicts electrophysiological recordings showing inhibition of mitochondrial complex I of the electron transport chain creates a hyperexcitable environment in acute mouse hippocampal slices. Epilepsy is defined as a neuronal state of hyperexcitability and hypersynchrony. […] The middle trace is an expansion of field potential marked by an asterisk in the top trace. Time-frequency analysis was performed on the signals to examine the component frequencies occurring during the field potentials. High frequency oscillations (HF05) in the 100-200 Hz bandwidth (called ripples) are normal and reflect small clusters of neurons firing action potentials synchronously. […] Fast ripples occur in humans and animals with epilepsy and are biomarkers for seizure-genic foci.
In Kv1.1−/− hippocampal slices, pathological high frequency oscillations are prevalent throughout the in Kv1.1−/− hippocampal network. In addition, there is an increase in neurotransmitter release probabilities at specific hippocampal circuit synapses. To experimentally mimic the mitochondrial pathology seen in epilepsy, a drug that impairs mitochondrial function at respiratory complex I, rotenone, was applied to control tissue. […] Fast ripples occur in humans and animals with epilepsy and are biomarkers for seizure-genic foci.

For C=C(C)[C@H]1Cc2c(ccc3c2O[C@@H]2COc4cc(OC)c(OC)cc4[C@@H]2C3=O)O1 [rotenone], the promotion of seizures (acute application of rotenone to control tissue) was “sufficient to promote seizures”, the “rate and amplitudes of spontaneous field potentials” value (rotenone 100 nM, 30 min application) was “increases” and the “high frequency oscillations (fast ripples), spectral organization” value (rotenone application, control tissue) was “spectral disorganization and the generation of faster HFOs; also recorded: promotes spectral disorganization and the generation of pathologic high frequency oscillations”. The “intensity of ripples and fast ripples” value (rotenone applied to slices) was “increases” and the “seizure-like events following high potassium (8 mM)” value (rotenone-treated vs vehicle-treated slice) was “greater in amplitude and longer in duration”.
